# Experiments:
# Kentucky bluegrass = test: Turfgrass safety test (sod mat pots), visual phytotoxicity; format: in vivo; conditions: 0-10 scale (10=completely killed)
# Description: (§1) Commercially available sod mats of zoysiagrass and bentgrass, Kentucky bluegrass, and perennial ryegrass were purchased. After cutting each turf sod mat in a size of 10 cm×20 cm, it was transplanted to a rectangular plastic pot having a surface area of 300 cm^2 wherein mixed soils including blend of a bed soil (Boonong, Horticultural Nursery Soil No. 3) and sandy loam soil were filled (mixing ratio, 1:1). After transplanting, the grass was mowed (0.5˜1.0 cm in height) once a week, and kept for one month in a greenhouse maintained at 25˜30° C. (day) or 15˜25° C. (night), then the test substance of the present invention was applied at dosage of 4, 2, 1 and 0.5 kg/ha. As a reference, Dithiopyr (32% EC, manufactured by Dongbu Hannong Chemical Company, KOREA) was applied at the recommended rate of 0.48 kg/ha, or twice or quadruple amount thereof, i.e., 0.96 and 1.92 kg/ha, respectively. Spray was made by a track sprayer equipped with a Teejet 8002 nozzle. Spray volume was adjusted to 2,000 L/ha, which was a typical value for an Asian (Korea and Japan) golf course. The spray solution was prepared by dissolving the “test substance” in acetone and adding the same volume of 0.2% (v/v) Tween 20 aqueous solution. Two, four or six weeks after the spray of the test substance, phytotoxicity to the turfgrass were visually evaluated based on 0 to 10 scale (0: no phytotoxic effect, 10: completely killed). The test was conducted in a randomized block design with a three replicates and the results were summarized in the following Table 2 is an average value of the replicates.
# Perennial ryegrass = test: as above; format: in vivo; conditions: 0-10 scale (10=completely killed)
# Description: as §1
# Bentgrass = test: as above; format: in vivo; conditions: 0-10 scale (10=completely killed)
# Description: as §1
# Annual bluegrass = test: Herbicidal activity at different growth stages, fresh weight suppression; format: in vivo; conditions: fresh weight two weeks after treatment
# Procedure: To a cup pot having a surface area of 100 cm^2 wherein mixed soils including blend bed soil (Boonong, Horticultural Bed Soil No. 3) and sandy loam soil were filled (mixing ratio, 1:1), seeds of large crabgrass and annual bluegrass were sown consecutively at an one week interval. The pots were moistened by sub-irrigation, and kept in a greenhouse maintained at 25˜30° C. (day) or 15˜25° C. (night). The said weeds were grown to various growth stages from pre-emergence to the four-leaf stage. […] Spray volume was adjusted to 2,000 L/ha. The method to spray of the test substance and prepare spray solutions were the same as described above. The reference herbicide was used after it was diluted with 0.2% (v/v) Tween 20 aqueous solution. The test was conducted in a randomized block design with three replicates. Two weeks after the treatment, plant parts remained above the pot soil surface were cut and the fresh weight was weighed. Results are given by a suppression ratio relative to the biomass that was obtained from the untreated group (see, Table 3).
# Zoysiagrass = test: Turfgrass safety test (sod mat pots), visual phytotoxicity; format: in vivo, Zoysia japonica; conditions: for Phytotoxic effect, visual assessment: Zoysiagrass Week 2 / Phytotoxic effect, visual assessment: Zoysiagrass Week 4 / Phytotoxic effect, visual assessment: Zoysiagrass Week 6: 0-10 scale (10=completely killed)
# Description: as §1
# Large crabgrass = test: Herbicidal activity at different growth stages, fresh weight suppression; format: in vivo; conditions: fresh weight two weeks after treatment
# Procedure: To a cup pot having a surface area of 100 cm^2 wherein mixed soils including blend bed soil (Boonong, Horticultural Bed Soil No. 3) and sandy loam soil were filled (mixing ratio, 1:1), seeds of large crabgrass and annual bluegrass were sown consecutively at an one week interval. The pots were moistened by sub-irrigation, and kept in a greenhouse maintained at 25˜30° C. (day) or 15˜25° C. (night). The said weeds were grown to various growth stages from pre-emergence to the four-leaf stage. Then, they were applied with the test substance of the present invention at dosage of 2, 1, 0.5, or 0.25 kg/ha. As a reference herbicide, Dithiopyr (32% EC, manufactured by Dongbu Hannong Chemical Company), was applied at 0.96, 0.48, or 0.24 kg/ha. Spray volume was adjusted to 2,000 L/ha. The method to spray of the test substance and prepare spray solutions were the same as described above. The reference herbicide was used after it was diluted with 0.2% (v/v) Tween 20 aqueous solution. The test was conducted in a randomized block design with three replicates. Two weeks after the treatment, plant parts remained above the pot soil surface were cut and the fresh weight was weighed. Results are given by a suppression ratio relative to the biomass that was obtained from the untreated group (see, Table 3).
smiles,measurement,setting,value
"CSC(=O)c1c(C(F)F)nc(C(F)(F)F)c(C(=O)SC)c1CC(C)C [Dithiopyr, reference compound]","Phytotoxic effect, visual assessment: Kentucky bluegrass Week 2",Kentucky bluegrass; 0.48 kg/ha (recommended rate),1.5
same,"Phytotoxic effect, visual assessment: Kentucky bluegrass Week 4",Kentucky bluegrass; 0.48 kg/ha (recommended rate),0.5
same,"Phytotoxic effect, visual assessment: Kentucky bluegrass Week 6",Kentucky bluegrass; 0.48 kg/ha (recommended rate),0.7
same,"Phytotoxic effect, visual assessment: Kentucky bluegrass Week 2",Kentucky bluegrass; 0.96 kg/ha,2.2
same,"Phytotoxic effect, visual assessment: Kentucky bluegrass Week 4",Kentucky bluegrass; 0.96 kg/ha,2.7
same,"Phytotoxic effect, visual assessment: Kentucky bluegrass Week 6",Kentucky bluegrass; 0.96 kg/ha,2.7
same,"Phytotoxic effect, visual assessment: Kentucky bluegrass Week 2",Kentucky bluegrass; 1.92 kg/ha,3.7
same,"Phytotoxic effect, visual assessment: Kentucky bluegrass Week 4",Kentucky bluegrass; 1.92 kg/ha,4.2
same,"Phytotoxic effect, visual assessment: Kentucky bluegrass Week 6",Kentucky bluegrass; 1.92 kg/ha,4.2
same,"Phytotoxic effect, visual assessment: Perennial ryegrass Week 2",Perennial ryegrass; 0.48 kg/ha (recommended rate),1.3
same,"Phytotoxic effect, visual assessment: Perennial ryegrass Week 4",Perennial ryegrass; 0.48 kg/ha (recommended rate),0.3
same,"Phytotoxic effect, visual assessment: Perennial ryegrass Week 6",Perennial ryegrass; 0.48 kg/ha (recommended rate),0.3
same,"Phytotoxic effect, visual assessment: Perennial ryegrass Week 2",Perennial ryegrass; 0.96 kg/ha,2.0
same,"Phytotoxic effect, visual assessment: Perennial ryegrass Week 4",Perennial ryegrass; 0.96 kg/ha,2.0
same,"Phytotoxic effect, visual assessment: Perennial ryegrass Week 6",Perennial ryegrass; 0.96 kg/ha,1.3
same,"Phytotoxic effect, visual assessment: Perennial ryegrass Week 2",Perennial ryegrass; 1.92 kg/ha,3.3
same,"Phytotoxic effect, visual assessment: Perennial ryegrass Week 4",Perennial ryegrass; 1.92 kg/ha,2.7
same,"Phytotoxic effect, visual assessment: Perennial ryegrass Week 6",Perennial ryegrass; 1.92 kg/ha,2.3
same,"Phytotoxic effect, visual assessment: Bentgrass Week 2",Bentgrass; 0.48 kg/ha (recommended rate),1.5
same,"Phytotoxic effect, visual assessment: Bentgrass Week 4",Bentgrass; 0.48 kg/ha (recommended rate),0.3
same,"Phytotoxic effect, visual assessment: Bentgrass Week 6",Bentgrass; 0.48 kg/ha (recommended rate),0.3
same,"Phytotoxic effect, visual assessment: Bentgrass Week 2",Bentgrass; 0.96 kg/ha,2.3
same,"Phytotoxic effect, visual assessment: Bentgrass Week 4",Bentgrass; 0.96 kg/ha,1.7
same,"Phytotoxic effect, visual assessment: Bentgrass Week 6",Bentgrass; 0.96 kg/ha,2.0
same,"Phytotoxic effect, visual assessment: Bentgrass Week 2",Bentgrass; 1.92 kg/ha,3.3
same,"Phytotoxic effect, visual assessment: Bentgrass Week 4",Bentgrass; 1.92 kg/ha,4.2
same,"Phytotoxic effect, visual assessment: Bentgrass Week 6",Bentgrass; 1.92 kg/ha,4.2
same,Suppression ratio relative to the biomass of the untreated group: Annual bluegrass 1 leaf,Annual bluegrass; .24 kg/ha,90%
same,Suppression ratio relative to the biomass of the untreated group: Annual bluegrass 2 leaf,Annual bluegrass; .24 kg/ha,87%
same,Suppression ratio relative to the biomass of the untreated group: Annual bluegrass 3 leaf,Annual bluegrass; .24 kg/ha,46%
same,Suppression ratio relative to the biomass of the untreated group: Annual bluegrass 4 leaf,Annual bluegrass; .24 kg/ha,4%
same,Suppression ratio relative to the biomass of the untreated group: Annual bluegrass PRE,Annual bluegrass; .24 kg/ha,100%
same,Suppression ratio relative to the biomass of the untreated group: Annual bluegrass 1 leaf,Annual bluegrass; .48 kg/ha,95%
same,Suppression ratio relative to the biomass of the untreated group: Annual bluegrass 2 leaf,Annual bluegrass; .48 kg/ha,88%
same,Suppression ratio relative to the biomass of the untreated group: Annual bluegrass 3 leaf,Annual bluegrass; .48 kg/ha,44%
same,Suppression ratio relative to the biomass of the untreated group: Annual bluegrass 4 leaf,Annual bluegrass; .48 kg/ha,10%
same,Suppression ratio relative to the biomass of the untreated group: Annual bluegrass PRE,Annual bluegrass; .48 kg/ha,100%
same,Suppression ratio relative to the biomass of the untreated group: Annual bluegrass 1 leaf,Annual bluegrass; .96 kg/ha,97%
same,Suppression ratio relative to the biomass of the untreated group: Annual bluegrass 2 leaf,Annual bluegrass; .96 kg/ha,91%
same,Suppression ratio relative to the biomass of the untreated group: Annual bluegrass 3 leaf,Annual bluegrass; .96 kg/ha,61%
same,Suppression ratio relative to the biomass of the untreated group: Annual bluegrass 4 leaf,Annual bluegrass; .96 kg/ha,35%
same,Suppression ratio relative to the biomass of the untreated group: Annual bluegrass PRE,Annual bluegrass; .96 kg/ha,100%
same,"Phytotoxic effect, visual assessment: Zoysiagrass Week 2",Zoysiagrass; 0.48 kg/ha (recommended rate),1.0
same,"Phytotoxic effect, visual assessment: Zoysiagrass Week 4",Zoysiagrass; 0.48 kg/ha (recommended rate),1.0
same,"Phytotoxic effect, visual assessment: Zoysiagrass Week 6",Zoysiagrass; 0.48 kg/ha (recommended rate),0.7
same,"Phytotoxic effect, visual assessment: Zoysiagrass Week 2",Zoysiagrass; 0.96 kg/ha,2.3
same,"Phytotoxic effect, visual assessment: Zoysiagrass Week 4",Zoysiagrass; 0.96 kg/ha,1.5
same,"Phytotoxic effect, visual assessment: Zoysiagrass Week 6",Zoysiagrass; 0.96 kg/ha,1.3
same,"Phytotoxic effect, visual assessment: Zoysiagrass Week 2",Zoysiagrass; 1.92 kg/ha,3.7
same,"Phytotoxic effect, visual assessment: Zoysiagrass Week 4",Zoysiagrass; 1.92 kg/ha,3.3
same,"Phytotoxic effect, visual assessment: Zoysiagrass Week 6",Zoysiagrass; 1.92 kg/ha,3.0
same,Phytotoxicity against zoysiagrass (in words),Zoysiagrass; in vivo,clearly evidencing the phytotoxicity
same,Suppression ratio relative to the biomass of the untreated group: Large crabgrass 1 leaf,Large crabgrass; .24 kg/ha,100%
same,Suppression ratio relative to the biomass of the untreated group: Large crabgrass 2 leaf,Large crabgrass; .24 kg/ha,89%
same,Suppression ratio relative to the biomass of the untreated group: Large crabgrass 3 leaf,Large crabgrass; .24 kg/ha,86%
same,Suppression ratio relative to the biomass of the untreated group: Large crabgrass 4 leaf,Large crabgrass; .24 kg/ha,56%
same,Suppression ratio relative to the biomass of the untreated group: Large crabgrass PRE,Large crabgrass; .24 kg/ha,100%
same,Suppression ratio relative to the biomass of the untreated group: Large crabgrass 1 leaf,Large crabgrass; .48 kg/ha,100%
same,Suppression ratio relative to the biomass of the untreated group: Large crabgrass 2 leaf,Large crabgrass; .48 kg/ha,95%
same,Suppression ratio relative to the biomass of the untreated group: Large crabgrass 3 leaf,Large crabgrass; .48 kg/ha,89%
same,Suppression ratio relative to the biomass of the untreated group: Large crabgrass 4 leaf,Large crabgrass; .48 kg/ha,57%
same,Suppression ratio relative to the biomass of the untreated group: Large crabgrass PRE,Large crabgrass; .48 kg/ha,100%
same,Suppression ratio relative to the biomass of the untreated group: Large crabgrass 1 leaf,Large crabgrass; .96 kg/ha,100%
same,Suppression ratio relative to the biomass of the untreated group: Large crabgrass 2 leaf,Large crabgrass; .96 kg/ha,98%
same,Suppression ratio relative to the biomass of the untreated group: Large crabgrass 3 leaf,Large crabgrass; .96 kg/ha,89%
same,Suppression ratio relative to the biomass of the untreated group: Large crabgrass 4 leaf,Large crabgrass; .96 kg/ha,66%
same,Suppression ratio relative to the biomass of the untreated group: Large crabgrass PRE,Large crabgrass; .96 kg/ha,100%

# From patent publication US8445409B2, “Use of 5-benzyloxymethyl-1,2-isoxazoline derivatives as a herbicide” (Moghu Research Center Ltd., priority 2007, dated 2013)
